Test results taken from patent US20220259585A1, “METHODS OF MAKING AND UTILIZING AMBER-OBLIGATED PHAGE DISPLAY LIBRARIES” (The Texas A&M University System, priority 2019, published 2022).
Numbered stars: 1 amine (or outer) side, 2 acyl side, 3 side chain; on linkers, the order of the positions; unused ones are H or OH. Square brackets hold non-standard residues; d marks the D form. Peptide text beside a SMILES is read from it. X1 = CCCC(=S)NCCCC[C@H](N[*:1])C(=O)[*:2]; Abu = CC[C@H](N)C(=O)O

Experiments:
MCF-7 cells = test: Western blot of α-tubulin K40 acetylation in MCF-7 cells (SIRT2 inhibition in cells); type: cell-based, human; conditions: 24 hours; for α-tubulin acetylation (lysine 40): MCF-7 cells, 50 μM, versus vehicle control (0.25% DMF); for increase in acetylation level compared to S2P04 in vivo (in cells): cell line not given, cell cultures 50 μM
Description: (§1) Finally, Applicant tested the ability of S2P04, a selected peptide with intermediate potency, to inhibit SIRT2 in human embryonic kidney (HEK 293T) and breast cancer cells (MCF-7). […] Following incubation with the inhibitor, Applicant measured the acetylation level of lysine 40 of α-tubulin, a known deacetylation substrate of SIRT2.
MCF-7 (HTB-22) and HEK 293T (CRL-11268) cells purchased from American Type Culture Collection were grown in Dulbecco's Modified Eagle Medium (Invitrogen) containing 10% fetal bovine serum (Invitrogen) at 37° C. in an atmosphere of 5% CO2. Cells were seeded in a 6-well plate (Falcon 353046) at 5×10^5 viable cells/well, and grown for 24-48 hours to 60-70% confluence. […] After incubating with the inhibitors for 24 hours, the media was removed and the cells were washed twice with ice-cold PBS (Invitrogen). Cells were lysed on ice for 30 minutes in 100 μL of buffer containing 25 mM Tris pH 7.4, 150 mM NaCl, 10% glycerol, 4 mM MgCl2, 0.2 mM DTT, 1% NP-40, 25 mM nicotinamide, 5 μM trichostatin A, and 1:100 dilution of protease inhibitor cocktail (Sigma-Aldrich). The lysates were clarified by centrifugation, quantified by BCA assay (Pierce), and aliquots were stored at −80° C. Cell lysates (15 or 20 μg) were resolved by SDS-PAGE under denaturing conditions on a 12% acrylamide gel and then transferred to a 0.2 μm nitrocellulose membrane (Bio-Rad). α-tubulin acetylation (K40) and total α-tubulin were probed with primary antibody clones 6-11B-1, and B-5-1-2, respectively, which were purchased from Sigma-Aldrich (1:2,000 dilution). Primary antibodies were probed with HRP-conjugated goat anti-mouse IgG (Jackson ImmunoResearch Laboratories, Inc., 1:10,000 dilution). Chemiluminescence signals were generated with the SuperSignal™ […] Chemiluminescent substrate (ThermoFisher Scientific) and visualized with a Bio-Rad ChemiDoc XRS+ imaging system.

SIRT2 = biological target: T1, SIRT2 (Homo sapiens, UniProt Q8IXJ6); test: Sirtuin inhibition assay with fluorogenic universal sirtuin substrate (SIRT2); type: biochemical; conditions: for IC50: inhibition of SIRT2, mean ± standard deviation of two independent experiments
T1 sequence (Q8IXJ6 1-389): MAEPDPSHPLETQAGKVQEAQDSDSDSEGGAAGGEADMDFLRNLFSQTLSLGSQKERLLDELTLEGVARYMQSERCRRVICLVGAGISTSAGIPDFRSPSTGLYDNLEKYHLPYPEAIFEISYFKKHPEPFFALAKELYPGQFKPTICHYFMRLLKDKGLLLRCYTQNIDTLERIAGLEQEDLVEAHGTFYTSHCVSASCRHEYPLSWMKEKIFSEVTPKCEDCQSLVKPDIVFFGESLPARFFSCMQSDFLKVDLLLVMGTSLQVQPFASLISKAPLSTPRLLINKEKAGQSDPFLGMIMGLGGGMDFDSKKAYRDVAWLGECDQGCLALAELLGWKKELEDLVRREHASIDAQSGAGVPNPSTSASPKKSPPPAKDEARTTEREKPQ
Description: For inhibition assays, the eluted protein was loaded onto a HiPrep 26/10 desalting column (GE Healthcare) that had been pre-equilibrated with Source 15Q buffer A (20 mM Tris pH 8.0, 50 mM NaCl, 0.2 mM DTT, 10% glycerol). The desalted protein was concentrated by ultrafiltration to 1 mL (10 kDa MWCO) and applied to a 10 mL Source 15Q column (GE Healthcare) pre-equilibrated with Source 15Q buffer A. The column was washed with 3 CV (2 mL·min^−1) of Source 15Q buffer A and then eluted with a linear gradient from 0-60% Source 15Q buffer B (20 mM Tris pH 8.0, 1 M NaCl, 0.2 mM DTT, 10% glycerol; 1 mL·min^−1) over 5 CV. The fractions containing pure SIRT2 were concentrated and stored at −80° C. Enzyme concentration was determined from the absorbance at 280 nm using the calculated extinction coefficient of 32,470 M^−1·cm^−1.
Inhibition assays for SIRT1-3 were performed using a recently reported fluorogenic, universal sirtuin substrate (JPT Peptide Technologies, GmbH). The inhibition reactions were performed in 50 μL volumes at 37° C. in black, half-area, 96-well plates. The sirtuin enzyme (0.25 μM) was pre-incubated with different concentrations of the synthetic peptides (0.0064-50 μM for SIRT1 and SIRT2, 0.5-100 μM for SIRT3) or TB (0.16-150 μM for SIRT1-3) and 1 mM NAD^+ in assay buffer (20 mM Tris pH 7.8, 150 mM NaCl, 5 mM MgCl2, 1 mM DTT) for 15 minutes. Following incubation, the reaction was started with the addition of the substrate (5 μM) and product formation was monitored by measuring the fluorescence intensity every 20 seconds for 5 minutes (SIRT2) or 30 minutes (SIRT1 and SIRT3) in a BioTek Synergy H1 microplate reader at λEx=320 nm, λEm=408 nm (gain=130, read height=7 mm). Initial rates of product formation were determined by linear regression of the plot of fluorescence intensity versus time and normalized relative to 0% activity (max inhibitor) and 100% activity (no inhibitor) controls. IC50 values were determined by nonlinear regression of the plot of normalized initial rate versus inhibitor concentration using GraphPad Prism.

HEK 293T cells = test: Western blot of α-tubulin K40 acetylation in HEK 293T cells (SIRT2 inhibition in cells); type: cell-based, human; conditions: 50 μM, 24 hours, versus vehicle control (0.25% DMF)
Description: as §1
MCF-7 (HTB-22) and HEK 293T (CRL-11268) cells purchased from American Type Culture Collection were grown in Dulbecco's Modified Eagle Medium (Invitrogen) containing 10% fetal bovine serum (Invitrogen) at 37° C. in an atmosphere of 5% CO2. Cells were seeded in a 6-well plate (Falcon 353046) at 5×10^5 viable cells/well, and grown for 24-48 hours to 60-70% confluence. […] After incubating with the inhibitors for 24 hours, the media was removed and the cells were washed twice with ice-cold PBS (Invitrogen). Cells were lysed on ice for 30 minutes in 100 μL of buffer containing 25 mM Tris pH 7.4, 150 mM NaCl, 10% glycerol, 4 mM MgCl2, 0.2 mM DTT, 1% NP-40, 25 mM nicotinamide, 5 μM trichostatin A, and 1:100 dilution of protease inhibitor cocktail (Sigma-Aldrich). The lysates were clarified by centrifugation, quantified by BCA assay (Pierce), and aliquots were stored at −80° C. […]

SIRT1 = biological target: T2, SIRT1 (Homo sapiens, UniProt Q96EB6); test: Sirtuin inhibition assay with fluorogenic universal sirtuin substrate (SIRT1); type: biochemical; conditions: selectivity SIRT2 over SIRT1
T2 sequence (Q96EB6 1-747): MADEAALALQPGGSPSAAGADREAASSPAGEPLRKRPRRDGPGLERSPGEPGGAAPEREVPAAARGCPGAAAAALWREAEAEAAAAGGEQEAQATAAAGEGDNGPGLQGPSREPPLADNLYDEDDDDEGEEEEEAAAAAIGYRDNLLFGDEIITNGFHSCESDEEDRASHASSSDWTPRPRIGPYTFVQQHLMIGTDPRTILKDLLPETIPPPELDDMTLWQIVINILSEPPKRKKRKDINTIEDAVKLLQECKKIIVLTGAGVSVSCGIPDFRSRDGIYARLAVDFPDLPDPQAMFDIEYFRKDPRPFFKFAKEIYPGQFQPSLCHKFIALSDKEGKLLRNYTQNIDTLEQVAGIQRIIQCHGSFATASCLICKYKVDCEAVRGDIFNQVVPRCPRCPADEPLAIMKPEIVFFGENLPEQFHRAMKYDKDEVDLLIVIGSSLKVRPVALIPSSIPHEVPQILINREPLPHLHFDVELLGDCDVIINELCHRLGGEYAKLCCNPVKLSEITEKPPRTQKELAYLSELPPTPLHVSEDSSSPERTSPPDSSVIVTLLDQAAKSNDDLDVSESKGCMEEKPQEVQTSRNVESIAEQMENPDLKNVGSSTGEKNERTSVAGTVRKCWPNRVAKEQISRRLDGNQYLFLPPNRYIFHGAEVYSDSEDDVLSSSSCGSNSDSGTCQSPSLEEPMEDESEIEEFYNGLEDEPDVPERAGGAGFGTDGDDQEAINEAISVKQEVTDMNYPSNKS
Description: Cell pellets were resuspended in 50 mL of lysis buffer (50 mM Tris pH 8.0, 250 mM NaCl, 10 mM imidazole, 0.1 mM phenylmethanesulfonyl fluoride (PMSF), 1% Triton X-100) and incubated with 1 mg·mL^−1 lysozyme (chicken egg white) for 30 minutes on ice. Following incubation, the resuspension was sonicated twice (1 s on, 1 s off, 1 min total, 60% output) and clarified by centrifugation. […] After 30 minutes, the mixture was filtered through a disposable column and the resin was washed with 40 mL of lysis buffer containing 0.1% Triton X-100, followed by 40 mL of lysis buffer without Triton X-100. […] Enzyme concentration was determined from the absorbance at 280 nm using the calculated extinction coefficient of 40,340 M^−1·cm^−1.
Inhibition assays for SIRT1-3 were performed using a recently reported fluorogenic, universal sirtuin substrate (JPT Peptide Technologies, GmbH). […] Following incubation, the reaction was started with the addition of the substrate (5 μM) and product formation was monitored by measuring the fluorescence intensity every 20 seconds for 5 minutes (SIRT2) or 30 minutes (SIRT1 and SIRT3) in a BioTek Synergy H1 microplate reader at λEx=320 nm, λEm=408 nm (gain=130, read height=7 mm). […] IC50 values were determined by nonlinear regression of the plot of normalized initial rate versus inhibitor concentration using GraphPad Prism.

SIRT3 = biological target: T3, SIRT3 (Homo sapiens, UniProt Q9NTG7); test: Sirtuin inhibition assay with fluorogenic universal sirtuin substrate (SIRT3); type: biochemical; conditions: selectivity SIRT2 over SIRT3
T3 sequence (Q9NTG7 1-399): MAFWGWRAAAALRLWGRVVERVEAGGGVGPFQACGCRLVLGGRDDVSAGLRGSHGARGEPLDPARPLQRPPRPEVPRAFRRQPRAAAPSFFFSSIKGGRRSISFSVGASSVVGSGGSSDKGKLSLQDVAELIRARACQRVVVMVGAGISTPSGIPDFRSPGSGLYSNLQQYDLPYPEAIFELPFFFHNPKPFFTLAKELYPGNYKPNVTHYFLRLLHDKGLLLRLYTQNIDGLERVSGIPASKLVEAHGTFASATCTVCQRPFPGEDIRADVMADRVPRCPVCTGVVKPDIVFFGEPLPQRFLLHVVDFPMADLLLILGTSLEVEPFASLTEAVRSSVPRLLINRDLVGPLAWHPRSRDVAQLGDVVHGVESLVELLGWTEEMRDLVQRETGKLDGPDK
Description: Cell pellets were resuspended in 50 mL of lysis buffer (50 mM Tris pH 7.4, 150 mM NaCl, 0.1 mM PMSF, 1% Triton X-100) and incubated in the presence of 1 mg·mL^−1 of lysozyme for 30 minutes on ice. Following incubation, the resuspension was sonicated twice (1 s on 1 s off, 1 min total, 60% output) and clarified by centrifugation. To the clarified supernatant was added 3 mL of a 50% slurry of immobilized glutathione resin (Genscript) and the mixture was incubated at 4° C. for 30 minutes with end-over-end rotation. After 30 minutes the mixture was filtered through a disposable column, and the resin was washed with 50 mL of lysis buffer containing 0.1% Triton X-100. […] Enzyme concentration was determined from the absorbance at 280 nm using the calculated extinction coefficient of 80,790 M^−1·cm^−1.
Inhibition assays for SIRT1-3 were performed using a recently reported fluorogenic, universal sirtuin substrate (JPT Peptide Technologies, GmbH). […] Following incubation, the reaction was started with the addition of the substrate (5 μM) and product formation was monitored by measuring the fluorescence intensity every 20 seconds for 5 minutes (SIRT2) or 30 minutes (SIRT1 and SIRT3) in a BioTek Synergy H1 microplate reader at λEx=320 nm, λEm=408 nm (gain=130, read height=7 mm). […]

| Structure (SMILES) | α-tubulin acetylation (lysine 40) (MCF-7 cells) | IC50 (SIRT2) [nM] | α-tubulin acetylation (lysine 40) (HEK 293T cells) | increase in acetylation level compared to S2P04 in vivo (in cells) (MCF-7 cells) | other results |
| --- | --- | --- | --- | --- | --- |
| CCCC(=S)NCCCC[C@H](NC(=O)OCc1ccccc1)C(=O)Nc1ccccc1 [TB, reference compound] | increase in α-tubulin acetylation compared to the control | 3110 | No increase in α-tubulin acetylation |  |  |
| CCCC(=S)NCCCC[C@H](NC(=O)[C@@H](NC(=O)[C@@H](NC(=O)[C@H](CS)NC(C)=O)[C@@H](C)O)C(C)C)C(=O)N[C@H](C(N)=O)[C@@H](C)CC [Ac-S2P04-5, Ac-CTVXI-NH2] (Ac-CTV[X1]I-NH2) |  |  |  | neither led to a greater increase in acetylation level compared to S2P04 |  |
| CCCC(=S)NCCCC[C@H](NC(=O)[C@@H](NC(=O)[C@@H](NC(=O)[C@@H](N)CC)[C@@H](C)O)C(C)C)C(=O)N[C@H](C(N)=O)[C@@H](C)CC [S2P04(Abu)-5, NH2-ZTVXI-NH2] (H-[Abu]TV[X1]I-NH2) |  |  |  | neither led to a greater increase in acetylation level compared to S2P04 |  |
| CCCC(=S)NCCCC[C@H](NC(=O)[C@@H](NC(=O)[C@@H](NC(=O)[C@H](CS)NC(=O)[C@@H](N)[C@@H](C)O)[C@@H](C)O)C(C)C)C(=O)N[C@H](C(=O)NCC(N)=O)[C@@H](C)CC [Compound S2P04, NH2-TCTVXIG-NH2] (H-TCTV[X1]IG-NH2) | increase in α-tubulin acetylation |  | increase in α-tubulin acetylation |  | fold more potent than TB (SIRT2; for each enzyme (SIRT1, SIRT2, SIRT3)): at least 33 fold; fold more potent inhibition of SIRT2 than SIRT1 (SIRT1): 2.7 fold; fold more potent inhibition of SIRT2 than SIRT3 (SIRT3): 152 fold |
| CCCC(=S)NCCCC[C@H](NC(=O)[C@@H](NC(=O)[C@@H](NC(=O)[C@@H](N)CS)[C@@H](C)O)C(C)C)C(=O)N[C@H](C(N)=O)[C@@H](C)CC [Compound S2P04-5] (H-CTV[X1]I-NH2; N-terminus and C-terminus assumed) |  | 136 ± 29 |  |  |  |
